Results published in PubChem BioAssay AID256 (DTP/NCI, 2004).
Where “and” joins values, the source holds several entries; their conditions need not be identical. Equal values may be shown once. Inconclusive results and toxic doses are left out. Positions of bridges follow the written chain, without caps; N, C: chain ends. Residues, ends and D or L forms follow the SMILES beside them. Chains are numbered I, II in the order given. *: point of attachment. Bz = O=C(c1ccccc1)*

Tested on: CD2F1 mice, L1210 leukemia ip, survival T/C
Assay: NCI In Vivo Anticancer Drug Screen. Data for tumor model L1210 Leukemia (intraperitoneal) in CD2F1 (CDF1) mice
Settings: higher = longer survival
Outline: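 Tumor-bearing mice (transplanted tumor) were split into treated and vehicle control groups, and the measured endpoint of each treated group was divided by that of its vehicle controls.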

[1] = endpoint: mean survival time, dose: 100.0 mg/kg/injection, schedule: Q01DX001 (ip), vehicle: saline with Tween-80
[2] = endpoint: mean survival time, dose: 200.0 mg/kg/injection, schedule: Q01DX001 (ip), vehicle: saline with Tween-80
[3] = endpoint: mean survival time, dose: 400.0 mg/kg/injection, schedule: Q01DX001 (ip), vehicle: saline with Tween-80
[4] = endpoint: mean survival time, dose: 25.0 mg/kg/injection, schedule: Q04DX002 (ip), vehicle: saline with Tween-80
[5] = endpoint: mean survival time, dose: 50.0 mg/kg/injection, schedule: Q04DX002 (ip), vehicle: saline with Tween-80
[6] = endpoint: mean survival time, dose: 100.0 mg/kg/injection, schedule: Q04DX002 (ip), vehicle: saline with Tween-80
[7] = endpoint: mean survival time, dose: 200.0 mg/kg/injection, schedule: Q04DX002 (ip), vehicle: saline with Tween-80
[8] = endpoint: mean survival time, dose: 100.0 mg/kg/injection, schedule: Q01DX001 (ip), vehicle: saline
[9] = endpoint: mean survival time, dose: 200.0 mg/kg/injection, schedule: Q01DX001 (ip), vehicle: saline
[10] = endpoint: mean survival time, dose: 400.0 mg/kg/injection, schedule: Q01DX001 (ip), vehicle: saline
[11] = endpoint: mean survival time, dose: 100.0 mg/kg/injection, schedule: Q04DX003 (ip), vehicle: saline with Tween-80
[12] = endpoint: mean survival time, dose: 200.0 mg/kg/injection, schedule: Q04DX003 (ip), vehicle: saline with Tween-80
[13] = endpoint: mean survival time, dose: 100.0 mg/kg/injection, schedule: Q01DX009 (ip), vehicle: saline with Tween-80
[14] = endpoint: mean survival time, dose: 200.0 mg/kg/injection, schedule: Q01DX009 (ip), vehicle: saline with Tween-80

CCCCCCCCCCCCCCCCOc1ccc(OCCCCCCCCCCCCCCC)cc1
T/C [1]: 88 % of control | T/C [2]: 89 % of control | T/C [3]: 88 % of control

CC(NC(=O)c1ccc(Cl)cc1Cl)c1ccccc1 (configuration not stated)
T/C (endpoint: mean survival time, dose: 75.0 mg/kg/injection, schedule: Q04DX003 (ip), vehicle: saline with Tween-80): 101 % of control | T/C (endpoint: mean survival time, dose: 150.0 mg/kg/injection, schedule: Q04DX003 (ip), vehicle: saline with Tween-80): 101 % of control | T/C (endpoint: mean survival time, dose: 300.0 mg/kg/injection, schedule: Q04DX003 (ip), vehicle: saline with Tween-80): 101 % of control

CCC(=O)NC(=O)C(=O)NC(=O)CC
T/C [4]: 102 % of control | T/C [5]: 95 % of control | T/C [6]: 91 % of control | T/C [7]: 109 % of control

N#CC(C#N)=NNc1ccc2cn[nH]c2c1
T/C (endpoint: median survival time, dose: 12.5 mg/kg/injection, schedule: Q01DX009 (ip), vehicle: Klucel (hydroxypropylcellulose) (HPC)): 98 % of control | T/C (endpoint: median survival time, dose: 25.0 mg/kg/injection, schedule: Q01DX009 (ip), vehicle: Klucel (hydroxypropylcellulose) (HPC)): 101 % of control | T/C (endpoint: median survival time, dose: 50.0 mg/kg/injection, schedule: Q01DX009 (ip), vehicle: Klucel (hydroxypropylcellulose) (HPC)): 111 % of control | T/C (endpoint: median survival time, dose: 100.0 mg/kg/injection, schedule: Q01DX009 (ip), vehicle: Klucel (hydroxypropylcellulose) (HPC)): 115 % of control

NC(=S)NC(=S)Nc1ccc(Cl)cc1
T/C [4]: 98 % of control | T/C [5]: 98 % of control | T/C [6]: 98 % of control

O=c1ccn(C2OC(CCl)C(O)C2O)c(=O)[nH]1 (configuration not stated)
T/C (endpoint: mean survival time, dose: 50.0 mg/kg/injection, schedule: Q01DX001 (ip), vehicle: saline): 105 % of control | T/C [8]: 102 % of control | T/C [9]: 94 % of control

NC(N)=Nc1nc(N)nc(N)n1
T/C (endpoint: mean survival time, dose: 3.13 mg/kg/injection, schedule: Q01DX009 (ip), vehicle: saline with Tween-80): 104 % of control | T/C (endpoint: mean survival time, dose: 6.25 mg/kg/injection, schedule: Q01DX009 (ip), vehicle: saline with Tween-80): 107 % of control | T/C (endpoint: mean survival time, dose: 12.5 mg/kg/injection, schedule: Q01DX009 (ip), vehicle: saline with Tween-80): 104 % of control and 110 % of control

CC(C)(C)OC(=O)NNC(=O)c1ccc([N+](=O)[O-])cc1
T/C (endpoint: mean survival time, dose: 6.25 mg/kg/injection, schedule: Q01DX009 (ip), vehicle: alcohol): 172 % of control | T/C (endpoint: mean survival time, dose: 12.5 mg/kg/injection, schedule: Q01DX009 (ip), vehicle: alcohol): 100 % of control | T/C (endpoint: mean survival time, dose: 25.0 mg/kg/injection, schedule: Q01DX009 (ip), vehicle: alcohol): 97 % of control

CC1=C(C#[N+][O-])C(C)(C)CCC1
T/C (endpoint: mean survival time, dose: 75.0 mg/kg/injection, schedule: Q01DX001 (ip), vehicle: other): 102 % of control | T/C (endpoint: mean survival time, dose: 150.0 mg/kg/injection, schedule: Q01DX001 (ip), vehicle: other): 97 % of control | T/C (endpoint: mean survival time, dose: 300.0 mg/kg/injection, schedule: Q01DX001 (ip), vehicle: other): 105 % of control

CCCOC(=O)C(C(=O)OCCC)(C(=O)OCCC)C(=O)OCCC
T/C [8]: 96 % of control | T/C [9]: 107 % of control | T/C [10]: 93 % of control

Cc1cc(S(=O)(=O)F)cc(Cl)c1OC(=S)N(C)C
T/C [6]: 96 % of control | T/C [7]: 96 % of control | T/C (endpoint: mean survival time, dose: 400.0 mg/kg/injection, schedule: Q04DX002 (ip), vehicle: saline with Tween-80): 92 % of control

CCCCCCCCCCCC(=O)Nc1ccc(C(C)C)cc1
T/C [11]: 97 % of control | T/C [12]: 96 % of control

Fc1c(F)c(F)[c]([Ge]([c]2c(F)c(F)c(F)c(F)c2F)([c]2c(F)c(F)c(F)c(F)c2F)[c]2c(F)c(F)c(F)c(F)c2F)c(F)c1F
T/C [13]: 97 % of control | T/C [11]: 86 % of control | T/C [14]: 92 % of control | T/C [12]: 91 % of control | T/C (endpoint: mean survival time, dose: 400.0 mg/kg/injection, schedule: Q01DX009 (ip), vehicle: saline with Tween-80): 91 % of control | T/C (endpoint: mean survival time, dose: 400.0 mg/kg/injection, schedule: Q04DX003 (ip), vehicle: saline with Tween-80): 93 % of control

N=c1cc([N+](=O)[O-])ccn1O
T/C [8]: 97 % of control | T/C [9]: 97 % of control | T/C [10]: 105 % of control

COC(=O)C(CSSCC(NC(=O)CNC(=O)c1ccccc1)C(=O)OC)NC(=O)CNC(=O)c1ccccc1 (stereo not drawn) (I: Bz-Gly-Cys-OMe / II: Bz-Gly-Cys-OMe; disulfide I:2-II:2; configuration not given here)
T/C [1]: 108 % of control | T/C [13]: 87 % of control | T/C [2]: 102 % of control | T/C [14]: 87 % of control | T/C [3]: 97 % of control

Cn1c2c(c3ccccc31)C(=O)CC2(C)C
T/C (endpoint: mean survival time, dose: 50.0 mg/kg/injection, schedule: Q04DX003 (ip), vehicle: saline with Tween-80): 103 % of control | T/C [1]: 93 % of control | T/C [11]: 89 % of control | T/C [2]: 98 % of control

Cc1c(Cl)cccc1N=Cc1ccc2c(c1)OCO2
T/C (endpoint: mean survival time, dose: 100.0 mg/kg/injection, schedule: Q04DX003 (ip), vehicle: Klucel (hydroxypropylcellulose) (HPC)): 102 % of control | T/C (endpoint: mean survival time, dose: 200.0 mg/kg/injection, schedule: Q04DX003 (ip), vehicle: Klucel (hydroxypropylcellulose) (HPC)): 96 % of control | T/C (endpoint: mean survival time, dose: 400.0 mg/kg/injection, schedule: Q04DX003 (ip), vehicle: Klucel (hydroxypropylcellulose) (HPC)): 102 % of control

S=P(c1ccccc1)(N1CC1)N1CC1
T/C (endpoint: mean survival time, dose: 6.25 mg/kg/injection, schedule: Q01DX009 (ip), vehicle: Klucel (hydroxypropylcellulose) (HPC)): 102 % of control | T/C (endpoint: mean survival time, dose: 6.25 mg/kg/injection, schedule: Q01DX009 (ip), vehicle: other): 95 % of control | T/C (endpoint: mean survival time, dose: 12.5 mg/kg/injection, schedule: Q01DX009 (ip), vehicle: Klucel (hydroxypropylcellulose) (HPC)): 102 % of control | T/C (endpoint: mean survival time, dose: 12.5 mg/kg/injection, schedule: Q01DX009 (ip), vehicle: other): 118 % of control and 104 % of control | T/C (endpoint: mean survival time, dose: 22.0 mg/kg/injection, schedule: Q01DX009 (ip), vehicle: other): 115 % of control | T/C (endpoint: mean survival time, dose: 25.0 mg/kg/injection, schedule: Q01DX009 (ip), vehicle: Klucel (hydroxypropylcellulose) (HPC)): 104 % of control | T/C (endpoint: mean survival time, dose: 25.0 mg/kg/injection, schedule: Q01DX009 (ip), vehicle: other): 106 % of control | T/C [4]: 96 % of control | T/C (endpoint: mean survival time, dose: 44.0 mg/kg/injection, schedule: Q04DX002 (ip), vehicle: other): 97 % of control | T/C (endpoint: mean survival time, dose: 44.0 mg/kg/injection, schedule: Q04DX003 (ip), vehicle: other): 106 % of control | T/C (endpoint: mean survival time, dose: 50.0 mg/kg/injection, schedule: Q01DX009 (ip), vehicle: Klucel (hydroxypropylcellulose) (HPC)): 118 % of control | T/C (endpoint: mean survival time, dose: 50.0 mg/kg/injection, schedule: Q01DX009 (ip), vehicle: other): 123 % of control | T/C [5]: 103 % of control and 106 % of control | T/C (endpoint: mean survival time, dose: 66.0 mg/kg/injection, schedule: Q04DX002 (ip), vehicle: other): 109 % of control | T/C (endpoint: mean survival time, dose: 66.0 mg/kg/injection, schedule: Q04DX003 (ip), vehicle: other): 118 % of control | T/C (endpoint: mean survival time, dose: 75.0 mg/kg/injection, schedule: Q01DX009 (ip), vehicle: other): 101 % of control | T/C (endpoint: mean survival time, dose: 100.0 mg/kg/injection, schedule: Q04DX002 (ip), vehicle: other): 115 % of control | T/C [6]: 117 % of control | T/C (endpoint: mean survival time, dose: 100.0 mg/kg/injection, schedule: Q04DX003 (ip), vehicle: other): 108 % of control | T/C (endpoint: mean survival time, dose: 118.0 mg/kg/injection, schedule: Q01DX001 (ip), vehicle: other): 100 % of control | T/C (endpoint: mean survival time, dose: 150.0 mg/kg/injection, schedule: Q04DX002 (ip), vehicle: other): 103 % of control | T/C (endpoint: mean survival time, dose: 178.0 mg/kg/injection, schedule: Q01DX001 (ip), vehicle: other): 97 % of control | T/C (endpoint: mean survival time, dose: 266.0 mg/kg/injection, schedule: Q01DX001 (ip), vehicle: other): 109 % of control | T/C (endpoint: mean survival time, dose: 400.0 mg/kg/injection, schedule: Q01DX001 (ip), vehicle: other): 100 % of control
